According to patent publication US9458093B2, “Compositions for the treatment of hypertension and/or fibrosis” (Vectus Biosystems Limited, priority 2013, dated 2016):

What was measured:
[1] = test system: A10 embryonic vascular smooth muscle cells; experiment: xCELLigence cellular impedance (cell index), A10 vascular smooth muscle cells; format: cell-based; conditions: 62.5, 125 and 250 μM, FIG. 3
Protocol: The xCELLigence SP system (Roche) was used to measure changes in cellular impedance (cell index) following the treatment of A10 embryonic vascular smooth muscle cells (ATCC, CRL-1476) with VB0004. This in vitro assay was correlated with blood pressure data obtained in the animal model described below in Example 3, so that it can be used for faster screening of larger number of compounds. […]
Briefly, 50 μl of cell culture medium (DMEM low glucose supplemented with 10% fetal bovine serum at 37° C.) was added to each well of an E-Plate 96 (Roche), and the background impedance in each well was measured. […] Cell index was monitored for each well of the E-Plate 96 in RTCA SP Station within the cell culture incubator. After overnight incubation for 16-20 hours at 5% CO2 and 95% humidity, 100 μl of VB0004 solution (VB0004 was prepared in DMSO and diluted with cell culture medium to a final DMSO concentration of 0.25%) was added to the appropriate wells of the E-Plate 96 and cell index values were measured immediately following compound treatment every 20 seconds for 3 hours. […]

SHR on 2.2% salt diet [2] = experiment: Oral study: systolic blood pressure by tail cuff plethysmography in SHR on 2.2% salt diet; format: in vivo, rat
Source text: (§1) Fourteen week old SHR (on a 2.2% salt diet; Glen Forrest Stockfeeders) were randomly assigned to zero time control, VB0004 treatment (10, 100, 500, 1,000 and 2,500 pmol/kg/min) in the drinking solution or control drinking solution (5% ethanol in deionised distilled water (n=5 each group). The rats assigned to zero time control group were anaesthetised and had their heart and kidneys harvested while rats assigned to control and VB0004 treatment were weighed twice weekly and had their drinking solution intake monitored to allow adjustment of the VB0004 concentration in the drinking solution to maintain a constant dose over the 4, 6 or 8 weeks study periods. Blood pressure was measured twice weekly by tail cuff plethysmography (PowerLab, ADInstruments, Castle Hill, NSW, Australia). After 4, 6 or 8 weeks rats were anaesthetised, and their heart and kidneys harvested for quantitation of fibrosis.

SHR on 2.2% salt diet [3] = experiment: Oral study: fibrosis quantitation in heart (Masson's trichrome) of SHR on 2.2% salt diet; format: in vivo, rat
Source text: as §1, with “fibrosis. To quantitate fibrosis, tissue slices ≦3 mm thick were fixed in 10% buffered formalin for 24 hours, processed and embedded in paraffin. […] A minimum of 20 random fields at magnification ×20 from transverse sections (5 at each of 2 levels) were digitized and the degree of fibrosis determined as a percent of field area of each digitized image using Image-Pro Plus V.5 (Media Cybernetics, Bethesda, Md., USA) then averaged to determine the level of fibrosis for tissue for each rat.” for “fibrosis.”

[4] = test system: bovine aortic endothelial cells; experiment: xCELLigence cellular impedance (cell index), bovine aortic endothelial cells; format: cell-based; conditions: 62.5, 125 and 250 μM, FIG. 5
Protocol: Briefly, 50 μl of cell culture medium (DMEM low glucose supplemented with 10% fetal bovine serum at 37° C.) was added to each well of an E-Plate 96 (Roche), and the background impedance in each well was measured. 50 μl of A-10 cell suspension (10,000 cells/well) was then added to the appropriate wells of the E-Plate 96. Cell index was monitored for each well of the E-Plate 96 in RTCA SP Station within the cell culture incubator. After overnight incubation for 16-20 hours at 5% CO2 and 95% humidity, 100 μl of VB0004 solution (VB0004 was prepared in DMSO and diluted with cell culture medium to a final DMSO concentration of 0.25%) was added to the appropriate wells of the E-Plate 96 and cell index values were measured immediately following compound treatment every 20 seconds for 3 hours. Cell index value is baseline-corrected by subtracting the cell index of vehicle-treated cells and normalized by dividing by the cell index at the time point immediately before compound addition. Baseline normalized cell index as a function of time is plotted using Roche RTCA software.
The xCELLigence SP system (Roche) was also used to measure changes in cellular impedance (cell index) following the treatment of bovine aortic endothelial cells (European Collection of Cell Cultures) with test compound. […]

SHR on 2.2% salt diet [5] = experiment: Oral study: fibrosis quantitation in kidney (Masson's trichrome) of SHR on 2.2% salt diet; format: in vivo, rat
Source text: as §1, with “fibrosis. To quantitate fibrosis, tissue slices ≦3 mm thick were fixed in 10% buffered formalin for 24 hours, processed and embedded in paraffin. […] A minimum of 20 random fields at magnification ×20 from transverse sections (5 at each of 2 levels) were digitized and the degree of fibrosis determined as a percent of field area of each digitized image using Image-Pro Plus V.5 (Media Cybernetics, Bethesda, Md., USA) then averaged to determine the level of fibrosis for tissue for each rat.” for “fibrosis.”

SHR on 2.2% salt diet [6] = experiment: Intravenous infusion study: systolic blood pressure by tail cuff plethysmography in SHR on 2.2% salt diet; format: in vivo, rat; conditions: intravenous 10 and 20 pmol/kg/min, 4 weeks, FIG. 6
Protocol: Fourteen week old SHR (on a 2.2% salt diet; Glen Forrest Stockfeeders) were randomly assigned to zero time control, VB0004 infusion (10 and 20 pmol/kg/min) or vehicle (20% DMSO in normal saline, Baxter Healthcare, Sydney NSW Australia) infusion (n=5 each group). […] Blood pressure was measured twice weekly by tail cuff plethysmography (PowerLab, ADInstruments, Castle Hill, NSW, Australia). After 4 weeks rats were again anaesthetised, their heart and kidneys harvested for quantitation of fibrosis.

**Q.** With `NC(=O)CCc1cc(-c2ccccc2)ccc1-c1cccc(O)c1` [VB0004, 2′-[3-Hydroxy-(1,1′:4′,1″-terphenyl)]propanamide] as the compound, how does the “impedance response (cell index)” value [1] read?
**A.** negative impedance response

**Q.** And the “mean systolic blood pressure over time” value (SHR on 2.2% salt diet [2]; 2,500 pmol/kg/min orally, up to 8 weeks, FIG. 8)?
**A.** continued to decrease with time

**Q.** What about the “mean systolic blood pressure compared to controls” value (SHR on 2.2% salt diet [2]; 10, 100 and 500 pmol/kg/min orally, 4 weeks, FIG. 4) of the same compound?
**A.** decreased blood pressure compared to controls

**Q.** What about the “mean systolic blood pressure compared with controls, dose dependence” value (SHR on 2.2% salt diet [2]; 10 to 2,500 pmol/kg/min orally, 4 weeks, FIG. 7) of the same compound?
**A.** decreased blood pressure with increased dose compared with controls

**Q.** What about the “fibrosis in the heart” value (SHR on 2.2% salt diet [3]; 18 week old SHR, 10 to 500 pmol/kg/min orally, 4 weeks, vs 14 and 18 week controls, FIG. 9) of the same compound?
**A.** decreased compared with fibrosis in 14 and 18 week controls

**Q.** And the “fibrous tissue in heart sections (micrographs, Masson's trichrome)” value (SHR on 2.2% salt diet [3]; SHR, 500 pmol/kg/min for four weeks, FIG. 11)?
**A.** virtually no fibrous tissue is present

**Q.** What about the melting point of the same compound?
**A.** 167.2 to 168.9 °C

**Q.** And the “impedance response (cell index)” value [4]?
**A.** negative impedance response

**Q.** And the “fibrosis in the kidney” value (SHR on 2.2% salt diet [5]; 18 week old SHR, 10 to 500 pmol/kg/min orally, 4 weeks, vs 14 and 18 week controls, FIG. 10)?
**A.** decreased compared with fibrosis in 14 and 18 week controls

**Q.** What about the “fibrous tissue in kidney sections (micrographs, Masson's trichrome)” value (SHR on 2.2% salt diet [5]; SHR, 500 pmol/kg/min for four weeks, FIG. 12) of the same compound?
**A.** virtually no fibrous tissue is present

**Q.** And the “decrease in SBP compared with vehicle control” value (SHR on 2.2% salt diet [6])?
**A.** 20 mmHg
